Assay results as given in patent publication US9394293B2, “TRPV1 antagonists including dihydroxy substituent and uses thereof” (Purdue Pharma L.P., priority 2011, dated 2016).

Experiments:
human TRPV1 [1] = target: T1, human TRPV1 (Homo sapiens (Human), UniProt Q8NER1); experiment: pH-based assay, Protocol 2 (hpH-CHO); format: cell-based; settings: read-out: TRPV1 IC50 Potency, Human pH CHO (hpH-CHO)
Method: (§1) For Protocol 2, a Chinese Hamster Ovary cell line (CHO) that has been engineered to constitutively express human recombinant TRPV1 was used (TRPV1/CHO cells). The TRPV1/CHO cell line was generated as described below.
TRPV1/CHO cells were seeded in the 96-well clear-bottom black-wall plate (Nunc) at densities of 1-2×10^4 cells/well and grown in 100 μL of culture medium (alpha-MEM supplemented with 10% FBS, 20 mM HEPES, 1 mg/mL geneticin and 1% antibiotic-antimycotic mixed stock solution) for 1-2 days before the experiment.
For the first half of a 96-well plate one agonist solution was used; for the second half the other agonist solution was used. The agonist solutions were obtained by diluting sulfuric acid (1M H2SO4) with measuring buffer. The concentrations for the two agonist solutions were determined as described above in Section 2 of Protocol 2.
The sulfuric acid concentrations between the two agonist solutions differed by 0.5 mM. […] After 1:4 dilution of the agonist solutions, the final sulfuric acid concentration was 3.2 mM and 3.3 mM, respectively. The resulting pH value for the pH assay was 5.0 to 5.1.
Test compounds were dissolved in DMSO to yield 1 mM stock solutions. […] The thereby-obtained solutions were further diluted in measuring buffer (1:100) as 10× stock serial dilutions with a DMSO concentration of 1%. 10 μL of a 10× stock was added into each well of an “antagonist plate” (see step 3.3.(4) below).
Steps (1) and (2) of this Assay were the same as steps 2.2.(1) and 2.2.(2), respectively, of Protocol 2.
(3) The cells were washed twice with 150 μL of measuring buffer (mentioned in step 2.2.(3) of Protocol 2, no probenecid). The wells were subsequently refilled with 70 μL of measuring buffer.
(4) Either 10 μL of measuring buffer or 10 μL of 10× stock serial dilution of test compound (described in step 3.2. above) were applied to each well. Usually, only one test compound was tested per 96-well plate. The number of replicates per 96-well plate for a particular antagonist at a particular concentration was 2×7 since, as described for the “agonist plate,” two different sulfuric acid concentrations were used per 96-well plate and seven lanes (A-C, E-H) per 96-well plate were used (N=2×7).
(6) Fura-2 fluorescent intensity was monitored as described in step 2.2.(5) above. After 16 time points of baseline detection, 20 μL of agonist solution (measuring buffer titrated with H2SO4 to yield a pH in the range of from about 5.0 to about 5.1 when mixed 1:4 with the measuring buffer containing test compound) was added to each well (final volume 100 μL/well).
Steps (7) and (8) were as described in steps 2.2.(6) and 2.2.(7) above, respectively.
(§2) The IC50 data provided in Table 10 are shown as mean±standard error of the mean; the number of trials conducted for each assay is shown in parentheses except for only a single trial where no number of trials is shown in parentheses.

human TRPV1 [2] = target: T1, human TRPV1; experiment: Capsaicin-based assay, Protocol 2 (hCAP-CHO); format: cell-based
Method: as §1
One day prior to assay, TRPV1/CHO cells were seeded in 96-well clear-bottom black plates (20,000 cells/well) in growth media. On the day of the experiment, the cells were washed with 0.2 mL 1× Hank's Balanced Salt Solution (Life Technologies) containing 1.6 mM CaCl2 and 20 mM HEPES, pH 7.4 (“wash buffer”). Subsequently, the cells were loaded by incubation in 0.1 mL of wash buffer containing Fluo-4 at 3 μM final concentration. After 1 hour, the cells were washed twice with 0.2 mL wash buffer and resuspended in 0.1 mL wash buffer. The plates were then transferred to a Fluorescence Imaging Plate Reader (Molecular Devices). Fluorescence intensity was monitored for 15 seconds to establish a baseline. Subsequently, test compounds diluted in assay buffer (lx Hank's Balanced Salt Solution containing 1 mM CaCl2 and 20 mM HEPES, pH 7.4) containing 1% DMSO were added to the cell plate and fluorescence was monitored for 2 minutes. […] Human TRPV1 was then activated by the addition of 50 μL capsaicin (100 nM final concentration) and plates incubated for an additional 3 min. Data were collected over the entire time course and analyzed using Excel and the curve-fitting formula GraphPad Prism.
as §2

[3] = In vivo assay of body temperature increase; set-up: species or system rat; settings: rats, oral, 1 mg/mL at 10 mL/kg once; greatest ΔTb versus control at 0.5, 1 or 2 hrs after administration; rectal temperature
Description: Selection of rats (Crl/SD rats, 7 weeks, male) was based on rectal body temperature measured during the morning of the day of dosing as described below. In addition, to minimize spontaneous, stress-induced increases in body temperature, rats were acclimated in advance to both the rectal measurement procedure and to being handled and dosed. All lodging and testing took place in animal care laboratories with constant room temperature and humidity. The rats were free to move and ingest food and water throughout. Each rat was coded with a colored line on the tail, housed in a separate cage, and permitted the normal range of movement. Immediately before each body temperature measurement, a rat was transferred to a measurement cage. To reduce stress which could influence its body temperature, each rat was covered with towels during the measurement. A thermistor probe was then carefully inserted into the rectum of each rat and left in place until the temperature reading on the digital display had stabilized; this value was recorded.
On the day before dosing, rectal body temperature was measured at 9:00, 10:00, 11:00, 12:30, 13:30, 14:30, and 15:30 o'clock to familiarize the rats with the measurement procedure prior to administration of the test or control treatments. The rats were also dosed by oral gavage without vehicle at 12:30 o'clock to acclimate and familiarize them with the handling and dosing procedure.
On the day of dosing, only rats with rectal body temperatures within the range of from 37.0° C. to 37.7° C. were selected for study. Rectal body temperatures were measured at 9:00, 10:00, and 11:00 o'clock. […] Rectal body temperatures of the selected rats were measured again at 12:30 o'clock and any rat with a rectal body temperature of 38.0° C. or greater was also excluded from the study.
Following assignment to either a test or control group, a test compound or a control was administered to the rats. […] Rectal body temperatures were measured at the following time points: 0.5, 1, and 2 hrs after administration. […]

human TRPV1 [4] = target: T1, human TRPV1; experiment: Human TRPV1 heat-based assay (hHeat-CHO); format: cell-based; settings: hTRPV1/CHO cells, temperature ramp 25° C. to 45° C.; mean ± SEM (number of trials); read-out: TRPV1 IC50 Potency, Human Heat CHO (hHeat-CHO)
Method: Human TRPV1 Heat-Based Assay:
CHO cells stably expressing human TRPV1 (hTRPV1) were used. Functional assessment of heat-induced activation of hTRPV1 was carried out in a cell-based Ca^2+ flux assay using ABI7500 Fast Real-Time PCR System as described in Reubish et al., “Functional assessment of temperature-gated ion-channel activity using a real-time PCR machine,” www.BioTechniques.com 47(3):iii-ix (2009), which is hereby incorporated by reference. Briefly, hTRPV1/CHO cells were cultured in growth media in a tissue culture dish at 37° C. in a CO2 incubator. On the day of the assay, culture media were removed and the cells were then detached using 0.05% trypsin at 37° C. with 5% CO2, for 90 s. The detached cells were centrifuged (1000 rpm, 4 min) to remove trypsin-containing supernatant and resuspended in assay buffer (115 mM NaCl, 5.4 mM KCl, 0.8 mM MgCl2.6H2O, 1.8 mM CaCl2.2H2O, 13.8 mM D-glucose, and 20 mM HEPES). Then, the cells were loaded with 5 μM Fluo-4, a Ca^2+ reporter dye, in the presence of 2.5 mM probenecid at 37° C. with 5% CO2, for 45 min. Thereafter, the cells were washed twice with measuring buffer (assay buffer supplemented with 0.1% BSA and 3.2 mM CaCl2) then transferred to a Fast 96-well Reaction Plate (0.1 mL) (Part no. 4346907, MICROAMP, Applied Biosystems, Foster City, Calif.). The cell density was 100,000 cells/24 μL/well. A solution of the compound under test (6 μL/well) was added into each well of the 96-well plate. Thus, the reaction volume per well was 30 μL.
The plates were then placed inside an ABI7500 Fast Real-Time PCR instrument (Applied Biosystems) to read fluorescence at different temperatures using 7500 software, version 2.0.2 (Applied Biosystems). The initial temperature was set at 25° C. for 1 min. followed by a temperature ramp to 45° C. in 100 s to deliver heat to cells. [Ca^2+]i response of hTRPV1/CHO cells to heat was determined as: [fluorescence read at 45° C.−fluorescence read at 25° C.].
Compound concentration response curves and IC50 values were analyzed using GraphPad Prism 4 software (GraphPad Software, La Jolla, Calif.).
as §2

[5] = prepared and evaluated according to the methods described in WO2005/030766
[6] = TRPV1/CHO cells, pH 5.0-5.1, mean ± SEM (number of trials)
[7] = TRPV1/CHO cells, 100 nM capsaicin, mean ± SEM (number of trials), read-out: TRPV1 IC50 Potency, Human Capsaicin CHO (hCAP-CHO)

T1 sequence (Q8NER1 whole entry, looked up): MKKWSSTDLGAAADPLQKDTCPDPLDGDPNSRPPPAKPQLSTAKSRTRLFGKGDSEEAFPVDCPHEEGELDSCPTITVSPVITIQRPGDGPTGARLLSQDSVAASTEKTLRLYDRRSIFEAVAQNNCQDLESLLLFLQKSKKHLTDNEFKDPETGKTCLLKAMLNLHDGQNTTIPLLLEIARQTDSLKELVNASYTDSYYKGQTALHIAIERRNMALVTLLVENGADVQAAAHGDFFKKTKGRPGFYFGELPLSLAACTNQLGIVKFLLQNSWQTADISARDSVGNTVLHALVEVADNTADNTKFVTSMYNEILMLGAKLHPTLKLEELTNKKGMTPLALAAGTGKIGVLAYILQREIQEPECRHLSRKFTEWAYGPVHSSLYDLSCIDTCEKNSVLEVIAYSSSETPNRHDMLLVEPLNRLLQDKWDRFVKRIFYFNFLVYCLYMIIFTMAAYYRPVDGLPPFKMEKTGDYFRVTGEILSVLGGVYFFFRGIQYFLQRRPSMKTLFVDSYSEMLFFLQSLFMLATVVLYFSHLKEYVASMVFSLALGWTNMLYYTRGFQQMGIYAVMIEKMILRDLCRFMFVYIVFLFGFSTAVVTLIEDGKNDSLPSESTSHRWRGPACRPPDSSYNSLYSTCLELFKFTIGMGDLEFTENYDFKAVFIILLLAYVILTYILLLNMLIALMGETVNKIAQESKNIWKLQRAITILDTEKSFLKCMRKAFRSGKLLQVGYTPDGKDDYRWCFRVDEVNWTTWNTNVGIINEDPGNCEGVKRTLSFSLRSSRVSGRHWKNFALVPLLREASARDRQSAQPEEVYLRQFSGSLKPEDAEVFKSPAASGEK

Row | SMILES | IC50 (human TRPV1 [1]; [5]) | IC50 (human TRPV1 [2]) | Body Temperature Increase ΔTb [3] | IC50 (human TRPV1 [4]) | IC50 (human TRPV1 [1]; [6]) | IC50 (human TRPV1 [2]; [7])
1 | Cc1cccnc1-c1ccc(C(=O)Nc2nc3ccc(Cl)cc3s2)cc1 [A, reference compound] | > 25 µM | > 25 µM | – | – | – | –
2 | C[C@H](O)[C@@H](O)c1cnc(N2CCN(C(=O)Nc3nc4ccc(F)cc4s3)[C@H](C)C2)c(Cl)c1 [BA] | – | – | 0.9 °C | – | – | –
3 | C[C@H](O)[C@@H](O)c1cnc(N2CCN(C(=O)Nc3nc4ccc(F)cc4s3)[C@@H](C)C2)c(F)c1 [BB] | – | – | 0.5 °C | – | – | –
4 | C[C@H](O)[C@@H](O)c1cnc(N2CCN(C(=O)Nc3nc4ccc(F)cc4s3)[C@H](C)C2)c(F)c1 [BC] | – | – | 0.7 °C | – | – | –
5 | Cc1cccnc1-c1ccc(C(=O)Nc2nc3ccc(F)cc3s2)cc1 [Compound B, reference compound] | > 25 µM | 1.14 ± 0.27 µM | – | – | – | –

Results, then the compound that gave them:

Row | IC50 (human TRPV1 [1]; [5]) | IC50 (human TRPV1 [2]) | Body Temperature Increase ΔTb [3] | IC50 (human TRPV1 [4]) | IC50 (human TRPV1 [1]; [6]) | IC50 (human TRPV1 [2]; [7]) | SMILES
6 | – | – | – | 0.307 ± 0.01 µM | 0.0443 ± 0.0062 µM | 0.0319 ± 0.0076 µM | O=C(Nc1nc2ccccc2s1)c1ccc(-c2ncc(C[C@@H](O)CO)cc2F)cc1 [Compound G155a, (R)—N-(benzo[d]thiazol-2-yl)-4-[5-(2,3-dihydroxypropyl)-3-fluoropyridin-2-yl]benzamide]
7 | – | – | – | 0.58 µM | 0.045 ± 0.0033 µM | 0.117 ± 0.0096 µM | O=C(Nc1nc2ccccc2s1)c1ccc(-c2ncc(C[C@H](O)CO)cc2F)cc1 [Compound G155b, (S)—N-(benzo[d]thiazol-2-yl)-4-[5-(2,3-dihydroxypropyl)-3-fluoropyridin-2-yl]benzamide]
8 | – | – | – | > 10 µM | 0.0188 ± 0.0018 µM | 0.0287 ± 0.0068 µM | O=C(Nc1nc2ccc(Cl)cc2s1)c1ccc(-c2ncc(C[C@@H](O)CO)cc2F)cc1 [Compound G156a, (R)—N-(6-chlorobenzo[d]thiazol-2-yl)-4-[5-(2,3-dihydroxypropyl)-3-fluoropyridin-2-yl]benzamide]
9 | – | – | – | 0.598 ± 0.296 µM | 0.0231 ± 0.0031 µM | 0.077 ± 0.029 µM | O=C(Nc1nc2ccc(F)cc2s1)c1ccc(-c2ncc(C[C@@H](O)CO)cc2F)cc1 [Compound G158a, (R)-4-[5-(2,3-dihydroxypropyl)-3-fluoropyridin-2-yl]-N-(6-fluorobenzo[d]thiazol-2-yl)benzamide]
10 | – | – | – | 0.879 ± 0.013 µM | 0.0137 ± 0.0002 µM | 0.0296 ± 0.0079 µM | Cc1ccc2nc(NC(=O)c3ccc(-c4ncc(C[C@@H](O)CO)cc4F)cc3)sc2c1 [Compound G159a, (R)-4-[5-(2,3-dihydroxypropyl)-3-fluoropyridin-2-yl]-N-(6-methylbenzo[d]thiazol-2-yl)benzamide]
11 | – | – | – | – | 0.105 ± 0.014 µM | 0.219 ± 0.058 µM | Cc1cc2nc(NC(=O)c3ccc(-c4ncc(C[C@@H](O)CO)cc4F)cc3)sc2cc1C [Compound G215a, (R)-4-[5-(2,3-dihydroxypropyl)-3-fluoropyridin-2-yl]-N-(5,6-dimethylbenzo[d]thiazol-2-yl)benzamide]
